In US12319675B2 (Artax Biopharma Inc., priority 2018, dated 2025):

Tests used:
[1] = Microsomal stability assay, mouse; type: in vitro ADME; details: mouse microsomes, read-out: Microsomal Stability (T1/2 min) Mouse
Procedure: (§1) Microsomal stability assays were performed using mouse, rat, and human […] according to methods well-known in the art. Microsomal stability results are shown in Table 2 for selected compounds of the invention. The compound numbers correspond to the compound numbers in Table 1. […] “N/A” indicates not assayed.

[2] = Microsomal stability assay, rat; type: in vitro ADME; details: rat microsomes, read-out: Microsomal Stability (T1/2 min) Rat
Procedure: as §1

[3] = tested on: CD3 mediated phosphorylation of ZAP70 in Jurkat cells; test: CD3 mediated phosphorylation of ZAP70 in Jurkat cells (HTRF); type: cell-based; details: Homo sapiens, Jurkat cells stimulated with 20 μg/mL anti-CD3 antibody; for Emax: maximum inhibition, read-out: pZAP70 Inhibition - Maximum Percent Inhibition (% Inhibition); for IC50: read-out: pZAP70 Inhibition IC50
Procedure: Inhibition of CD3 mediated phosphorylation of ZAP70 in Jurkat cells was measured by a cellular based Homogeneous Time-Resolved Fluorescence (HTRF) assay utilizing a Total ZAP-70 HTRF kit.
Briefly, Jurkat cells (˜1.3×10^6 cells/mL) were harvested on the day of experimentation. Cells were washed with PBS and resuspended in Assay Buffer (RPMI 1640 media plus 10% FBS) and counted.
Jurkat cells were seeded in Assay media at a total volume of 4 μL/well (40K cells/well) in a 384-low volume white flat bottom plate. The cells were then incubated at 37° C./5% CO2 for 30 minutes. The cells were then treated in duplicate with test compounds (3×) and reference compounds (3×) in a total volume of 4 μL, respectively. A compound dilution scheme is exemplified in FIG. 1.
The plate was then transferred to an incubator maintained at 37° C./5% CO2 for 2 minutes. Following incubation, cells were stimulated with 20 μg/mL of anti-CD3 antibody (1 mg/mL stock) and assay media was used to bring the total well volume 4 μL/well. The plate was then transferred to the incubator maintained at 37° C./5% CO2 for 2.5 minutes. Following incubation, 4 μL of lysis buffer (4×) provided in the kit was added to each well. The plate was then incubated at RT for 1 hour with gentle shaking. Following incubation, 4 μL of detection mix was added to each well and the plate was sealed with a plate sealer and left overnight at RT in the dark.
The Envision reader was set-up for Eu^3+ cryptate and fluorescence emission was read at two different wavelengths (620 nm and 665 nm). • Excitation filter: UV2(TRF) 320 nm • Emission filter: 665 nm • 2nd Emission filter: Europium 615 nm • Measurement height (mm): 6.5 • Excitation light (%): 100 • Delay (μs): 50 • Window time (μs): 400 • Time between flashes (μs): 2000 • Number of flashes: 100 • Number of flashes for 2nd detector: 100
The data is represented by the signal form the two wavelengths:
The ratio of the signal is calculated for each individual well:
The data was plotted using Graph Pad Prism. The significance between untreated vs. treated groups was assessed by One-way ANOVA and Bonferroni posttest comparing all columns in the graph.
ZAP70 IC50 results are shown in Table 6 for select compounds of the invention. The compound numbers correspond to the compound numbers in Table 1. […] “ND” indicates not determined.
ZAP70 percent maximum inhibition results are shown in Table 7 for select compounds of the invention. The compound numbers correspond to the compound numbers in Table 1.

[4] = Microsomal stability assay, human; type: in vitro ADME; details: human microsomes, read-out: Microsomal Stability (T1/2 min) Human
Procedure: as §1

Row | half-life [1] | half-life [2] | IC50 [3] | half-life [4] | Structure (SMILES) | Emax [3]
1 | > 30 min | > 30 min | < 0.001 µM | > 30 min | Fc1ccc(C2=C(CN3CCCC3)COc3ccc(OCCc4nnn[nH]4)cc32)cc1 [Compound I-34, 5-(2-((4-(4-fluorophenyl)-3-(pyrrolidin-1-ylmethyl)-2H-chromen-6-yl)oxy)ethyl)-1H-tetrazole] | 30 to 40%
2 | < 10 min | < 10 min | > 0.05 µM | > 30 min | CN1CCN(C(=O)C2=C(c3ccc(F)cc3)c3cc(F)ccc3OC2)CC1 [Compound I-58, (6-fluoro-4-(4-fluorophenyl)-2H-chromen-3-yl)(4-methylpiperazin-1-yl)methanone] | 30 to 40%
3 |  |  | 0.01 to 0.05 µM |  | O=C(O)CCCOc1ccc2c(c1)C(c1ccc(F)cc1)=C(CN1CCCC1)CO2 [Compound I-67] | > 50%
4 | < 10 min | > 30 min | 0.01 to 0.05 µM | < 10 min | CN1CCN(CCOc2ccc3c(c2)C(c2ccc(F)cc2)=C(C(=O)N2CCCC2)CO3)CC1 [Compound I-43] | 30 to 40%
5 |  |  | 0.001 to 0.01 µM |  | CN1CCN(CC2=C(c3ccc(C(F)(F)F)cc3)c3cc(OCCC(=O)O)ccc3OC2)CC1 [Compound I-69] | > 50%
6 | 10 to 30 min | < 10 min | 0.001 to 0.01 µM | > 30 min | Fc1ccc(C2=C(CN3CCCC3)COc3ccc(F)cc32)cc1 [Compound I-63, 1-((6-fluoro-4-(4-fluorophenyl)-2H-chromen-3-yl)methyl)pyrrolidine] | 30 to 40%
7 |  |  | 0.001 to 0.01 µM |  | CC(C)(COc1ccc2c(c1)C(c1ccc(C(F)(F)F)cc1)=C(CN1CCOCC1)CO2)C(=O)O [Compound I-79] | > 50%
8 | > 30 min | > 30 min | 0.001 to 0.01 µM | > 30 min | Fc1ccc(C2=C(CN3CCCC3)COc3ccc(OCCN4CCCCC4)cc32)cc1 [Compound I-39, 1-(2-((4-(4-fluorophenyl)-3-(pyrrolidin-1-ylmethyl)-2H-chromen-6-yl)oxy)ethyl)piperidine] | ≤ 30%
9 |  |  | 0.001 to 0.01 µM |  | CC(C)(COc1ccc2c(c1)C(c1ccc(F)cc1)=C(CN1CCCC1)CO2)C(=O)O [Compound I-66] | > 50%
10 |  |  | 0.001 to 0.01 µM |  | CN1CCN(CC2=C(c3ccc(F)cc3)c3cc(OCCC(=O)O)ccc3OC2)CC1 [Compound I-64] | 30 to 40%
11 | < 10 min | < 10 min | > 0.05 µM | < 10 min | CN1CCN(C(=O)C2=C(c3ccc(F)cc3)c3cc(OC4CC4)ccc3OC2)CC1 [Compound I-27] | ≤ 30%
12 |  |  | 0.001 to 0.01 µM |  | CN(C)CCNCC1=C(c2ccc(C(F)(F)F)cc2)c2cc(OCCC(=O)O)ccc2OC1 [Compound I-70] | 40 to 50%
13 | < 10 min | < 10 min |  | 10 to 30 min | O=C(C1=C(c2ccc(F)cc2)c2cc(OC(F)(F)F)ccc2OC1)N1CCCC1 [Compound I-7] | 
14 |  |  | 0.001 to 0.01 µM |  | O=C(C1=C(c2ccc(F)cc2)c2cc(F)ccc2OC1)N1CCCC1 [Compound I-62] | 30 to 40%
15 | 10 to 30 min | < 10 min | < 0.001 µM | > 30 min | CN1CCN(CC2=C(c3ccc(F)cc3)c3cc(F)ccc3OC2)CC1 [Compound I-59, 1-((6-fluoro-4-(4-fluorophenyl)-2H-chromen-3-yl)methyl)-4-methylpiperazine] | 30 to 40%
16 | > 30 min | 10 to 30 min | 0.001 to 0.01 µM | > 30 min | O=c1[nH]c(CCOc2ccc3c(c2)C(c2ccc(F)cc2)=C(CN2CCCC2)CO3)no1 [Compound I-37, 3-(2-((4-(4-fluorophenyl)-3-(pyrrolidin-1-ylmethyl)-2H-chromen-6-yl)oxy)ethyl)-1,2,4-oxadiazol-5(2H)-one] | 30 to 40%
17 |  |  | < 0.001 µM |  | O=C(O)CCOc1ccc2c(c1)C(c1ccc(C(F)(F)F)cc1)=C(CN1CCCC1)CO2 [Compound I-68] | > 50%
18 | 10 to 30 min | < 10 min | 0.001 to 0.01 µM | > 30 min | CC(C)(O)CCOc1ccc2c(c1)C(c1ccc(F)cc1)=C(CN1CCCC1)CO2 [Compound I-35, 4-((4-(4-fluorophenyl)-3-(pyrrolidin-1-ylmethyl)-2H-chromen-6-yl)oxy)-2-methylbutan-2-ol] | ≤ 30%
19 |  |  | 0.001 to 0.01 µM |  | CC(C)(COc1ccc2c(c1)C(c1ccc(C(F)(F)F)cc1)=C(CN1CCCC1)CO2)C(=O)O [Compound I-81] | > 50%
20 | > 30 min | > 30 min | 0.001 to 0.01 µM | < 10 min | O=C(C1=C(c2ccc(F)cc2)c2cc(OCCN3CCCCC3)ccc2OC1)N1CCCC1 [Compound I-41] | 30 to 40%
21 |  |  | 0.001 to 0.01 µM |  | CC(C)(COc1ccc2c(c1)C(c1ccc(F)cc1)=C(CN1CCOCC1)CO2)C(=O)O [Compound I-80] | > 50%
22 | 10 to 30 min | 10 to 30 min | < 0.001 µM | > 30 min | N/C(CCOc1ccc2c(c1)C(c1ccc(F)cc1)=C(CN1CCCC1)CO2)=N\O [Compound I-36, 3-((4-(4-fluorophenyl)-3-(pyrrolidin-1-ylmethyl)-2H-chromen-6-yl)oxy)-N-hydroxypropanimidamide] | 40 to 50%
23 | > 30 min | > 30 min | 0.001 to 0.01 µM | > 30 min | CN1CCN(CC2=C(c3ccc(F)cc3)c3cc(OC(F)(F)F)ccc3OC2)CC1 [Compound I-11, 1-((4-(4-fluorophenyl)-6-(trifluoromethoxy)-2H-chromen-3-yl)methyl)-4-methylpiperazine] | ≤ 30%
24 | < 10 min | < 10 min | 0.001 to 0.01 µM | 10 to 30 min | CN(C)CCNCC1=C(c2ccc(F)cc2)c2cc(F)ccc2OC1 [Compound I-61, N′-((6-fluoro-4-(4-fluorophenyl)-2H-chromen-3-yl)methyl)-N^2,N^2-dimethylethane-1,2-diamine] | 40 to 50%

Row | Structure (SMILES) | half-life [1] | half-life [2] | IC50 [3] | half-life [4] | Emax [3]
25 | CC(C)(O)CCOc1ccc2c(c1)C(c1ccc(F)cc1)=C(C(=O)N1CCCC1)CO2 [Compound I-42, (4-(4-fluorophenyl)-6-(3-hydroxy-3-methylbutoxy)-2H-chromen-3-yl)(pyrrolidin-1-yl)methanone] | < 10 min | 10 to 30 min | > 0.05 µM | < 10 min | ≤ 30%
